The experiment concerns the target T1, KCNQ2/3 heteromultimers (Rattus norvegicus, UniProt O88943+O88944).
T1 construct: endogenous in cells; host or cells: PC-12 cells differentiated with NGF-7s; no transfection is described
Briefly: Rubidium (Rb+) efflux test in PC-12 cells. In kind it is cell-based. To be noted: NGF-differentiated PC-12 cells, depolarization buffer 15 mM KCl, 10 min. The method, then:
Compounds of this invention formula were evaluated for activity toward potassium channels in a cell-based Rb^+ efflux assay. This cellular bioassay is believed to faithfully represent the M current channel activities identified with KCNQ2/3 heteromultimers. […] Additionally, antiseizure activity in vivo was evaluated in a mouse maximal electroshock seizure (MES) model, and neurotoxicities were determined from a rotorod neurocognitive motor impairment model.
PC-12 cells were grown at 37° C. and 5% CO2 in DMEM/F12 Medium (Dulbecco's Modified Eagle Medium with Nutrient Mix F-12, available from Invitrogen of Carlsbad, Calif.), supplemented with 10% horse serum, 5% fetal bovine serum, 2 mM glutamine, 100 U/ml penicillin, and […] streptomycin. They were plated in poly-D-lysine-coated 96-well cell culture microplates at a density of 40,000 cells/well and differentiated with 100 ng/ml NGF-7s for 2-5 days. For the assay, the medium was aspirated, and the cells were washed once with 0.2 ml in wash buffer (25 mM HEPES, pH 7.4, 150 mM NaCl, 1 mM MgCl2; 0.8 mM NaH2PO4, 2 mM CaCl2). The cells were then loaded with 0.2 ml Rh^+ loading buffer (wash buffer plus 5.4 mM […], 5 mM glucose) and incubated at 37° C. for 2 h. Attached cells were quickly washed three times with buffer (same as Rb^+ loading buffer, but containing 5.4 mM KCl instead of RbCl) to remove extracellular Rb^+. Immediately following the wash, 0.2 ml of depolarization buffer (wash buffer plus 15 mM KCl) with or without compounds was added to the cells to activate efflux of potassium ion channels. After incubation for 10 min at room temperature, the supernatant was carefully removed and collected. Cells were lysed by the addition of 0.2 ml of lysis buffer (depolarization buffer plus 0.1% Triton X-100) and the cell lysates were also collected. If collected samples were not immediately analyzed for Rb^+ contents by atomic absorption spectroscopy (see below), they were stored at 4° C. without any negative effects on subsequent Rb^+ analysis.
The concentrations of Rb^+ in the supernatants (Rb^+Sup) and the cell lysates (Rb^+Lys) were quantified using an ICR8000 flame atomic absorption spectrometer (Aurora Biomed Inc., Vancouver, B.C.) under conditions defined by the manufacturer. Samples 0.05 ml in volume were processed automatically from microtiter plates by dilution with an equal volume of Rb^+ sample analysis buffer and injection into an air-acetylene flame. The amount of Rb^+ in the sample was measured by absorption at 780 nm using a hollow cathode lamp as light source and a PMT detector. A calibration curve covering the range 0-5 mg/L Rb^+ in sample analysis buffer was generated with each set of plates. The percent Rb^+ efflux (F) was defined by F=[Rb^+Sup/(Rb^+Sup+Rb^+Lys)]×100%. wherein the Fc is the efflux in the presence of compound in depolarization buffer, Fb is the efflux in basal buffer, and Fs is the efflux in depolarization buffer, […]. The efflux (F) and compound concentration relationship was plotted to calculate an EC50 value, a compound's concentration for 50% of maximal RV efflux. Maximal Electroshock Seizure (MES) and Acute Toxicity Tests MES Test
As for `Cc1cc(OCc2ccc(C(F)(F)F)cc2)cc(C)c1NC(=O)CC(C)(C)C`, the EC50 was 0.01 to 0.05 µM.

The compound `Cc1cc(OCc2ccc(F)cc2)cc(C)c1NC(=O)CCC1CCCC1` gave an EC50 of 0.001 to 0.01 µM.

Consider `Cc1cc(OCc2cccc(Cl)c2)cc(C)c1NC(=O)CC(C)(C)C`, for which the EC50 lay within 0.01 to 0.05 µM.

On to `Cc1cc(OCc2cccc(C(F)(F)F)c2)cc(C)c1NC(=O)CC(C)(C)C`, for which the EC50 fell in the range of 0.01 to 0.05 µM.

Regarding `Cc1cc(OCc2ccc(F)cc2)cc(C)c1NC(=O)CC(C)(C)C`, the EC50 fell in the range of 0.01 to 0.05 µM.

For `Cc1cc(OCc2cccc(F)c2)cc(C)c1NC(=O)CC(C)(C)C`, the EC50 lay within 0.01 to 0.05 µM.

In turn, `Cc1cc(OCc2ccc(Cl)cc2)cc(C)c1NC(=O)CC(C)(C)C` came in with an EC50 of 0.01 to 0.05 µM.

On to `CCOC(=O)Nc1ccc(OCc2ccc(F)cc2)cc1`, for which the EC50 fell in the range of 0.05 to 0.5 µM.

As for `Cc1ccc(COc2cc(C)c(NC(=O)CC(C)(C)C)c(C)c2)cc1`, the EC50 is 0.01 to 0.05 µM.

Compound `Cc1cc(OCc2ccccc2C(F)(F)F)cc(C)c1NC(=O)CC(C)(C)C` returned an EC50 of 0.05 to 0.5 µM.

In the case of `CCOC(=O)Nc1ccc(OCc2ccc(F)cc2)cc1C(F)(F)F`, the EC50 was 0.05 to 0.5 µM.

`Cc1cc(OCc2ccc(F)c(F)c2)cc(C)c1NC(=O)CCC1CCCC1`: the concentration giving a half-maximal response (EC50) was in the range of 0.001 to 0.01 µM.

Consider `Cc1cc(OCc2ccc(F)cc2F)cc(C)c1NC(=O)CC(C)(C)C`, for which the EC50 was in the range of 0.01 to 0.05 µM.

On to `Cc1cc(OCc2ccc(F)c(F)c2)cc(C)c1NC(=O)CC(C)(C)C`, for which the EC50 lay in the range of 0.01 to 0.05 µM.

Consider `Cc1cc(OCc2ccc(Br)cc2)cc(C)c1NC(=O)CC(C)(C)C`, for which the EC50 was 0.01 to 0.05 µM.

`CCOC(=O)Nc1ccc(OCc2ccc(F)cc2)cc1F` yielded an EC50 of 0.05 to 0.5 µM.

In turn, `CCOC(=O)Nc1ccc(OCc2ccc(F)cc2)cc1C` returned an EC50 of 0.05 to 0.5 µM.

The term EC50 denotes the concentration giving half of the maximal effect. Lower therefore signals a more potent agent.

The values are drawn from patent US8492588B2, “Benzyloxy anilide derivatives useful as potassium channel modulators” (Valeant Pharmaceuticals International, priority 2008, dated 2013).
